Laboratory results reported in ChEMBL document CHEMBL1125810, “Acyclic analogues of 2-(4-phenylpiperidino)cyclohexanol (vesamicol): conformationally mobile inhibitors of vesicular acetylcholine transport” (J Med Chem, 1991).

What follows are compounds tested against T1, Vesicular acetylcholine transporter (Torpedo californica, UniProt P81721) (assay: Displacement of [3H]vesamicol from Vesamicol receptor of Torpedo californica).
T1 sequence (P81721 whole entry): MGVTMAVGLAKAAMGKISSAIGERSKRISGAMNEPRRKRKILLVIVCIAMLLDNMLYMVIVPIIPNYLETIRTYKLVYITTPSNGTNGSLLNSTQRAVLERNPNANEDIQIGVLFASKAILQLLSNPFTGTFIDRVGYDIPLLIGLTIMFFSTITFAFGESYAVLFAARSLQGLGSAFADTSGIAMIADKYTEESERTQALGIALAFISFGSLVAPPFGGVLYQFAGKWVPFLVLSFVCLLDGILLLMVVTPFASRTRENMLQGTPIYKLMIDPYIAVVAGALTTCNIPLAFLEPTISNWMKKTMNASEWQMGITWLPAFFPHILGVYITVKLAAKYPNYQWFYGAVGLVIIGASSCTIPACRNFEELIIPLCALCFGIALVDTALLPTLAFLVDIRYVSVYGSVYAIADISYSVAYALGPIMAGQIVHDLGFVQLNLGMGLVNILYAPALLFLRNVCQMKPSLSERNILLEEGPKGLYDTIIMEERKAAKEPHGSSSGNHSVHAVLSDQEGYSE
Parameters: species or system Tetronarce californica

Structure (SMILES)	IC50 [nM]
OC(Cc1cccc(I)c1)CN1CCC(c2ccccc2)CC1 (centres undefined)	73
OC(Cc1cccc2ccccc12)CN1CCC(c2ccccc2)CC1 (centres undefined)	1400
OC(Cc1ccc(Br)cc1)CN1CCN(c2ccccc2)CC1 (centres undefined)	1540
OC(Cc1cccc(Br)c1)CN1CCN(c2ccccc2)CC1 (centres undefined)	990
Oc1ccc(CC(O)CN2CCC(c3ccccc3)CC2)cc1 (centres undefined)	220
COc1cccc(CC(O)CN2CCC(c3ccccc3)CC2)c1 (centres undefined)	115

Further compounds by falling IC50, results first:

IC50 [nM]	Structure (SMILES)
520	Oc1cccc(CC(O)CN2CCC(c3ccccc3)CC2)c1 (centres undefined)
145	OC(Cc1ccc2ccccc2c1)CN1CCC(c2ccccc2)CC1 (centres undefined)
73	OC(Cc1cccc(Br)c1)CN1CCC(c2ccccc2)CC1 (centres undefined)
